Experimental data reported in patent publication US6849657B2, “2-pyrrolidone derivatives as prostanoid agonists” (Syntex (U.S.A.) LLC, priority 2001, dated 2005).
Where two headings read alike, the source gives them in different places.

What was measured:
rEP2 receptor = rEP2 receptor (UniProt Q62928); assay: Competitive binding assay of [3H]PGE2 to rEP2 receptor; details: [3H]-PGE2 competitive binding, membranes of transfected COS-7 cells, pH 6.0, 45 minutes at 23° C.; read-out: EP2, Ki
Experimental: (§1) Competitive Binding Assay of [^3H]PGE2 to rEP1, rEP2, rEP3 and rEP4 Receptor
(§2) Stably transfected cells expressing EP3 were grown in F-12 media (GIBCO) supplemented with 10% heat inactivated certified Fetal Bovine Serum (GIBCO) and pelleted. Prostanoid receptor EP2 or EP4 cDNA corresponding to the full-length coding sequence was subcloned into the appropriate sites of the mammalian expresson vector pcDNA 3.1(+)/Zeo (Invitrogen). Transfection-scale quantities of the vector were prepared using the Qiagen Endo-Free Plasmid Maxi Kit and transfected into COS-7 cells using FuGene 6 (Roche Molecular) according to the manufacturer's instructions (Roche). COS-7 cells were grown in DMEM (GIBCO) supplemented with 10% heat inactivated certified Fetal Bovine Serum (GIBCO) and Gentamicin (GIBCO), and were harvested 72 hours after transfection. Cells were pelleted by centrifugation, washed with PBS (GIBCO), repelleted, then flash-frozen in dry-ice/Ethanol or used directly for membrane preparation.
(§3) All procedures for membrane preparation were performed at 4° C. Prostanoid receptor-transfected COS-7 cells or stably transfected CHO cells were homogenized in assay buffers (see recipe, below) using a Polytron homogenizer (Brinkman) and centrifuged at 48,000×g for 30 minutes. Pellets were resuspended in assay buffer and resuspended by sonication using a Branson sonifier. Protein concentration was determined using the BioRad DC Protein Assay following the manufacturer's directions and stored at −80° C.
Methods for competitive affinity binding assays of EP2, EP3 and EP4 were derived from those described in M. Abramovitz et al, “The utilization of recombinant prostanoid receptors to determine the affinities and selectivities of prostaglandins and related analogs” Biochimica et Biophysica Acta 1483 (2000) 285-293. Binding assays were performed in a final incubation volume of 0.2 mL in the following assay buffers: 20 mM HEPES, 1 mM EDTA, and 10 mM MgCl2 (pH 7.4) (EP3) or 10 mM MES, 10 mM MnCl2, and 1 mM EDTA_(pH to 6.0 with NaOH) (EP2 and EP4) and radioligand {2.25 nM (EP3) or 2.5 nM (EP2) [^3H]-PGE2 (200 Ci/mmol, NEN)}. Reactions were initiated by addition of membrane protein (approximately 50 ug/reaction for EP3, 100 ug for EP2 and EP4). Dimethylsulfoxide (Sigma) concentration was kept constant at 1% (v/v) in all incubations, and compounds were assayed at final concentrations of 100 uM-0.3 nM. Non-specific binding was determined in the presence of 10 µM of non-radioactive PGE2 (Cayman Chemical). Incubations were conducted for 60 minutes at 30° C. (EP3) or 45 minutes at 23° C. (EP2 and EP4). Incubations were terminated by rapid filtration through a 96-well Unifilter GF/B (Packard) (prewetted in 10 mM MES, 0.01% BSA, pH 6.0 for EP2) at 4° C. using a Filtermate 196 96-well semi-automated cell harvester (Packard). The filters were washed with 3-4 mL of wash buffer (20 mM HEPES pH 7.4 for EP3, 10 mM MES, 0.01% BSA, pH 6.0 for EP2 and EP4), dried for at least 1 hour at room temperature, and the residual radioactivity bound to the individual filters determined by scintillation counting with addition of 37.5 uL of Microscint 20 (Packard) using a Packard TopCount Microplate Scintillation Counter. Statistics of binding were determined using Prism v 3.0 software (GraphPad).

rEP3 receptor = target: T1, rEP3 receptor (UniProt P34980); assay: Competitive binding assay of [3H]PGE2 to rEP3 receptor; details: [3H]-PGE2 competitive binding, membranes of stably transfected cells, pH 7.4, 60 minutes at 30° C.; read-out: EP3, Ki
T1 sequence (P34980 1-365): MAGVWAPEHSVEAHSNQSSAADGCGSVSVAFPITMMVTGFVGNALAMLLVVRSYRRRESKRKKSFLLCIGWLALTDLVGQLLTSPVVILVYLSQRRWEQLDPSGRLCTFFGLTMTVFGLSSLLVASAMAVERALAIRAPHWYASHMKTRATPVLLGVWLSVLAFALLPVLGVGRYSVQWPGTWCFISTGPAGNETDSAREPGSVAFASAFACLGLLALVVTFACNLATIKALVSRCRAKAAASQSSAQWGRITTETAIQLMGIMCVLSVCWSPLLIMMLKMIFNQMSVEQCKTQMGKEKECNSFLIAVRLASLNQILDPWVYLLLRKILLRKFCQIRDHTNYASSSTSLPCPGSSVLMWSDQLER
Experimental: as §1, §2, §3
Methods for competitive affinity binding assays of EP2, EP3 and EP4 were derived from those described in M. Abramovitz et al, “The utilization of recombinant prostanoid receptors to determine the affinities and selectivities of prostaglandins and related analogs” Biochimica et Biophysica Acta 1483 (2000) 285-293. Binding assays were performed in a final incubation volume of 0.2 mL in the following assay buffers: 20 mM HEPES, 1 mM EDTA, and 10 mM MgCl2 (pH 7.4) (EP3) or 10 mM MES, 10 mM MnCl2, and 1 mM EDTA_(pH to 6.0 with NaOH) (EP2 and EP4) and radioligand {2.25 nM (EP3) or 2.5 nM (EP2) [^3H]-PGE2 (200 Ci/mmol, NEN)}. […] Non-specific binding was determined in the presence of 10 µM of non-radioactive PGE2 (Cayman Chemical). […] The filters were washed with 3-4 mL of wash buffer (20 mM HEPES pH 7.4 for EP3, 10 mM MES, 0.01% BSA, pH 6.0 for EP2 and EP4), dried for at least 1 hour at room temperature, and the residual radioactivity bound to the individual filters determined by scintillation counting with addition of 37.5 uL of Microscint 20 (Packard) using a Packard TopCount Microplate Scintillation Counter. Statistics of binding were determined using Prism v 3.0 software (GraphPad).

rEP4 receptor = rEP4 receptor (UniProt P43114); assay: Competitive binding assay of [3H]PGE2 to rEP4 receptor
Experimental: as §1, §2, §3
Reactions were initiated by addition of membrane protein (approximately 50 ug/reaction for EP3, 100 ug for EP2 and EP4). Dimethylsulfoxide (Sigma) concentration was kept constant at 1% (v/v) in all incubations, and compounds were assayed at final concentrations of 100 uM-0.3 nM. Non-specific binding was determined in the presence of 10 µM of non-radioactive PGE2 (Cayman Chemical). Incubations were conducted for 60 minutes at 30° C. (EP3) or 45 minutes at 23° C. (EP2 and EP4). […] The filters were washed with 3-4 mL of wash buffer (20 mM HEPES pH 7.4 for EP3, 10 mM MES, 0.01% BSA, pH 6.0 for EP2 and EP4), dried for at least 1 hour at room temperature, and the residual radioactivity bound to the individual filters determined by scintillation counting with addition of 37.5 uL of Microscint 20 (Packard) using a Packard TopCount Microplate Scintillation Counter. Statistics of binding were determined using Prism v 3.0 software (GraphPad).

[1] = [3H]-PGE2 competitive binding, membranes of transfected COS-7 cells, pH 6.0, 45 minutes at 23° C.; read-out: EP4, Ki

Question: How did the Ki (rEP2 receptor) turn out when CCCCC[C@H](O)/C=C/[C@H]1CCC(=O)N1CCSCCCC(=O)O [Compound 1, 4-[(2-{(2R)-2-[(1E,3S)-3-hydroxyoct-1-enyl]-5-oxopyrrolidin-1-yl}ethyl)thio]butanoic acid] was run?
Answer: Its Ki is 1.6 µM.

Question: What about the Ki (rEP3 receptor) of the same compound?
Answer: The Ki was 2.6 µM.

Question: What about the Ki (rEP4 receptor; [1]) of the same compound?
Answer: Its Ki is 0.005 µM.

Question: CCCCCC(O)/C=C/[C@H]1CCC(=O)N1C/C=C\COCC(=O)O (stereo partly drawn) [Compound 8, {(Z)-4-[(R)-2-((E)-3-hydroxy-oct-1-enyl)-5-oxo-pyrrolidin-1-yl]-but-2-enyloxy}-acetic acid] was tested. Which Ki (rEP2 receptor) did it give?
Answer: Its Ki is greater than 10 µM.

Question: With O=C(O)COCCCCN1C(=O)CC[C@@H]1/C=C/[C@@H](O)Cc1cccc(C(F)(F)F)c1 [Compound 10, (4-{(R)-2-[(S)-(E)-3-hydroxy-4-(3-trifluoromethyl-phenyl)-but-1-enyl]-5-oxo-pyrrolidin-1-yl}-butoxy)-acetic acid] as the compound, how does the Ki (rEP2 receptor) read?
Answer: The Ki was 66 µM.

Question: And the Ki (rEP3 receptor)?
Answer: The Ki was greater than 10 µM.

Question: What about the Ki (rEP4 receptor; read-out: EP4, Ki; [3H]-PGE2 competitive binding, membranes of transfected COS-7 cells, pH 6.0, 45 minutes at 23° C.) of the same compound?
Answer: Its Ki is 0.007 µM.

Question: Which results are given for CCCCCC(C)(O)/C=C/[C@H]1CCC(=O)N1CCSCCCC(=O)O (stereo partly drawn) [Compound 14, 4-{2-[(R)-2-((E)-3-hydroxy-3-methyl-oct-1-enyl)-5-oxo-pyrrolidin-1-yl]-ethylsulfanyl}-butyric acid]?
Answer: Ki (rEP2 receptor): 18 µM; Ki (rEP4 receptor; [1]): 0.09 µM

Question: With O=C(O)CCCSCCN1C(=O)CC[C@@H]1CC[C@@H](O)c1cccc(Oc2cccc(F)c2)c1 [Compound 15, 4-[2-((S)-2-{(R)-3-[3-(3-Fluoro-phenoxy)-phenyl]-3-hydroxy-propyl}-5-oxo-pyrrolidin-1-yl)-ethylsulfanyl]-butyric Acid] as the compound, how does the Ki (rEP2 receptor) read?
Answer: Its Ki is 7.8 µM.

Question: What about the Ki (rEP3 receptor) of the same compound?
Answer: The Ki was 49 µM.

Question: What about the Ki (rEP4 receptor; [1]) of the same compound?
Answer: Its Ki is 0.008 µM.

Question: Which results are given for CCCCC[C@H](O)/C=C/C1CCC(=O)N1OCCCCCC(=O)O (stereo partly drawn) [Compound 28, 6-[2-((S)-(E)-3-Hydroxy-oct-1-enyl)-5-oxo-pyrrolidin-1-yloxy]-hexanoic acid]?
Answer: Ki (rEP2 receptor): > 10 µM; Ki (rEP3 receptor): > 10 µM; Ki (rEP4 receptor; [1]): 0.06 µM
